Measured values as given in patent US20260285816A1, “Piperazinyl-Modified Quinazolinyl-Aryl Urea Derivative, And Preparation Method And Use Thereof” (Guangxi Normal University, priority 2025, published 2026).

Experiments:
Type in all cases: cell-based, human
MG-63 cells = test: CCK-8 anti-proliferative assay, MG-63; conditions: Homo sapiens, MG-63; Table 7; co-incubated 48 h; read-out: Anti-proliferative activity (IC50 ± standard deviation) MG-63
From the text: (§1) The obtained quinazolinyl-aryl urea derivatives were screened for compounds with optimal activity using the following method. All cell lines employed in this experiment were of human origin, including: bladder cancer cells: J82, UM-UC-3, T24, 5637, pancreatic cancer cells: BxPC-3, PANC-1, osteosarcoma cells: 143B, MG-63, cervical cancer cells: HeLa, breast cancer cells: MCF-7, NSCLC cells: A549, hepatoblastoma cells: Hep G2, and ovarian cancer cells: SK-OV-3, as well as normal cell lines: immortalized ureteral epithelial cells (SV-HUC-1), embryonic lung fibroblasts (WI-38).
(§2) Experimental Procedure for Anti-Proliferative Activity Evaluation: The CCK-8 assay was employed. Cells in logarithmic growth phase were harvested, adjusted to appropriate density, and uniformly seeded into 96-well plates using a multichannel pipette (180 μL cell suspension containing complete medium per well, 5,000 cells/well). Blank control wells (containing basal medium, CCK-8 solution, and DMSO only) were set. Cells were incubated at 37° C. under 5% CO2. After 70% confluency was reached, test compounds (target compounds/positive controls) were added at final concentrations of 1, 2, 4, 6, 8, 12, 16, 24, and 30 μM (3 repeated wells per concentration). Compounds were pre-dissolved in DMSO, sterilized, and diluted with medium before adding 20 μL/well. After co-incubation for designated durations, 10 μL CCK-8 solution was added per well followed by 1-4 h incubation (different cells have different incubation times). The reaction was terminated, and OD (optical density) values at 450 nm were measured using a microplate reader. Inhibition rates were calculated as: (ODcontrol−ODtreatment)/ODcontrol×100%. Median inhibitory concentrations (IC50 values) were derived using Origin v8.0 software.

[1] = system: immortalized ureteral epithelial cells (SV-HUC-1); test: CCK-8 anti-proliferative assay, normal cells SV-HUC-1; conditions: Homo sapiens, SV-HUC1; Table 9; normal cells; co-incubated 48 h; read-out: Anti-proliferative activity (IC50 ± standard deviation) SV-HUC-1
Method: (§3) The obtained quinazolinyl-aryl urea derivatives were screened for compounds with optimal activity using the following method.
as §2, with “The reaction was terminated, and OD (optical density) values at 450 nm were measured using a microplate reader.” left out

SK-OV-3 cells = test: CCK-8 anti-proliferative assay, SK-OV-3; conditions: Homo sapiens, SK-OV-3; Table 9; co-incubated 48 h; read-out: Anti-proliferative activity (IC50 ± standard deviation) SK-OV-3
Method: as §3
as §2, with “The reaction was terminated, and OD (optical density) values at 450 nm were measured using a microplate reader.” left out

UM-UC-3 cells = test: CCK-8 anti-proliferative assay, UM-UC-3; conditions: Homo sapiens, UMUC3; Table 6; co-incubated 48 h; read-out: Anti-proliferative activity (IC50 ± standard deviation) UM-UC-3
Method: as §3
as §2, with “The reaction was terminated, and OD (optical density) values at 450 nm were measured using a microplate reader.” left out

MCF-7 cells = test: CCK-8 anti-proliferative assay, MCF-7; conditions: Homo sapiens, MCF7; Table 8; co-incubated 48 h; read-out: Anti-proliferative activity (IC50 ± standard deviation) MCF-7
Method: as §3
as §2, with “The reaction was terminated, and OD (optical density) values at 450 nm were measured using a microplate reader.” left out

T24 cells = test: CCK-8 anti-proliferative assay, T24; conditions: Homo sapiens, T-24; Table 6; co-incubated 48 h; read-out: Anti-proliferative activity (IC50 ± standard deviation) T24
From the text: as §1, §2

143B cells = test: CCK-8 anti-proliferative assay, 143B; conditions: Homo sapiens, 143B; Table 7; co-incubated 48 h; read-out: Anti-proliferative activity (IC50 ± standard deviation) 143B
From the text: as §1, §2

HeLa cells = test: CCK-8 anti-proliferative assay, HeLa; conditions: Homo sapiens, HeLa; Table 8; co-incubated 48 h; read-out: Anti-proliferative activity (IC50 ± standard deviation) HeLa
Method: as §3
as §2, with “The reaction was terminated, and OD (optical density) values at 450 nm were measured using a microplate reader.” left out

A549 cells = test: CCK-8 anti-proliferative assay, A549; conditions: Homo sapiens, A549; Table 8; co-incubated 48 h; read-out: Anti-proliferative activity (IC50 ± standard deviation) A549
Method: as §3
as §2, with “The reaction was terminated, and OD (optical density) values at 450 nm were measured using a microplate reader.” left out

BxPC-3 cells = test: CCK-8 anti-proliferative assay, BxPC-3; conditions: Homo sapiens, BXPC-3; Table 7; co-incubated 48 h; read-out: Anti-proliferative activity (IC50 ± standard deviation) BxPC-3
From the text: as §1, §2

Hep G2 cells = test: CCK-8 anti-proliferative assay, Hep G2; conditions: Homo sapiens, HepG2; Table 8; co-incubated 48 h; read-out: Anti-proliferative activity (IC50 ± standard deviation) Hep G2
From the text: as §1, §2

[2] = system: embryonic lung fibroblasts (WI-38); test: CCK-8 anti-proliferative assay, normal cells WI-38; conditions: Homo sapiens, WI-38, Table 9, co-incubated 48 h, read-out: Anti-proliferative activity (IC50 ± standard deviation) WI-38
From the text: as §1, §2

5637 cells = test: CCK-8 anti-proliferative assay, 5637; conditions: Homo sapiens; Table 6; co-incubated 48 h; read-out: Anti-proliferative activity (IC50 ± standard deviation) 5637
Method: as §3
as §2, with “The reaction was terminated, and OD (optical density) values at 450 nm were measured using a microplate reader.” left out

PANC-1 cells = test: CCK-8 anti-proliferative assay, PANC-1; conditions: Homo sapiens, PANC-1; Table 7; co-incubated 48 h; read-out: Anti-proliferative activity (IC50 ± standard deviation) PANC-1
From the text: as §1, §2

J82 cells = test: CCK-8 anti-proliferative assay, J82; conditions: Homo sapiens, J82; Table 6; co-incubated 48 h; read-out: Anti-proliferative activity (IC50 ± standard deviation) J82
Method: as §3
as §2, with “The reaction was terminated, and OD (optical density) values at 450 nm were measured using a microplate reader.” left out

SMILES | IC50 (MG-63 cells) | IC50 [1] | IC50 (SK-OV-3 cells) | IC50 (UM-UC-3 cells) | IC50 (MCF-7 cells) | IC50 (T24 cells) | IC50 (143B cells) | IC50 (HeLa cells) | IC50 (A549 cells) | IC50 (BxPC-3 cells) | IC50 (Hep G2 cells) | IC50 [2] | IC50 (5637 cells) | IC50 (PANC-1 cells) | IC50 (J82 cells)
COc1cc2ncnc(NCc3cccc(NC(=O)Nc4cccc(C)c4)c3)c2cc1OCCCCCCN1CCN(CCN2CCOCC2)CC1 [Compound 8-1c, N-(3-(((7-methoxy-6-((6-(4-(2-morpholinoethyl)piperazin-1-yl)hexyl)oxy)quinazolin-4-yl)amino)methyl)phenyl)-N′-(3-methylphenyl)urea] | 7.34 ± 0.65 µM | 16 ± 0.81 µM | 9.73 ± 0.69 µM | 14.1 ± 0.82 µM | 25.8 ± 2.53 µM | 11.5 ± 0.66 µM | 13 ± 0.84 µM | > 30 µM | 18.4 ± 0.98 µM | 16.5 ± 0.92 µM | 7.27 ± 0.51 µM | 13.9 ± 0.73 µM | 13 ± 0.85 µM | > 30 µM | 6.05 ± 0.63 µM
COc1cc2ncnc(NCc3cccc(NC(=O)Nc4ccc(C)cc4)c3)c2cc1OCCCCCCN1CCN(CCN2CCOCC2)CC1 [Compound 8-1d, N-(3-(((7-methoxy-6-((6-(4-(2-morpholinoethyl)piperazin-1-yl)hexyl)oxy)quinazolin-4-yl)amino)methyl)phenyl)-N′-(4-methylphenyl)urea] | 7.73 ± 0.49 µM | 12.8 ± 0.66 µM | 9.26 ± 0.87 µM | 13.2 ± 0.77 µM | > 30 µM | 6.59 ± 0.79 µM | 8.62 ± 0.53 µM | 16.1 ± 0.71 µM | 15.8 ± 0.84 µM | 13.7 ± 0.73 µM | 7.04 ± 0.48 µM | 12.6 ± 0.92 µM | 7.72 ± 0.66 µM | 27.4 ± 2.24 µM | 5.89 ± 0.57 µM
CCc1ccccc1NC(=O)Nc1cccc(CNc2ncnc3cc(OC)c(OCCCCCCN4CCN(CCN5CCOCC5)CC4)cc23)c1 [Compound 8-1g, N-(3-(((7-methoxy-6-((6-(4-(2-morpholinoethyl)piperazin-1-yl)hexyl)oxy)quinazolin-4-yl)amino)methyl)phenyl)-N′-(2-ethylphenyl)urea] | 10.9 ± 0.93 µM | > 30 µM | 6.38 ± 0.51 µM | 26 ± 1.79 µM | 20.3 ± 1.88 µM | 24.8 ± 0.62 µM | 19.3 ± 0.74 µM | 23 ± 0.99 µM | 26.4 ± 2.59 µM | 10.8 ± 0.52 µM | 12.7 ± 0.74 µM | > 30 µM | 22.5 ± 0.79 µM | 13.1 ± 0.78 µM | 19.7 ± 0.98 µM
CCc1cccc(CC)c1NC(=O)Nc1cccc(CNc2ncnc3cc(OC)c(OCCCCCCN4CCN(CCN5CCOCC5)CC4)cc23)c1 [Compound 8-1h, N-(3-(((7-methoxy-6-((6-(4-(2-morpholinoethyl)piperazin-1-yl)hexyl)oxy)quinazolin-4-yl)amino)methyl)phenyl)-N′-(2,6-diethylphenyl)urea] | 4.92 ± 0.46 µM | 17.8 ± 1.59 µM | 6.19 ± 0.44 µM | 8.74 ± 0.52 µM | 8.49 ± 0.88 µM | 6.89 ± 0.48 µM | 4.46 ± 0.24 µM | 8.03 ± 0.62 µM | 12.3 ± 0.84 µM | 7.61 ± 0.76 µM | 4.67 ± 0.38 µM | 23.2 ± 0.76 µM | 5.41 ± 0.36 µM | 9.63 ± 0.92 µM | 5.64 ± 0.39 µM
COc1cc2ncnc(NCc3cccc(NC(=O)Nc4ccc(C(C)C)cc4)c3)c2cc1OCCCCCCN1CCN(CCN2CCOCC2)CC1 [Compound 8-1i, N-(3-(((7-methoxy-6-((6-(4-(2-morpholinoethyl)piperazin-1-yl)hexyl)oxy)quinazolin-4-yl)amino)methyl)phenyl)-N′-(4-isopropylphenyl)urea] | 11.1 ± 0.95 µM | 19.3 ± 1.39 µM | 7.68 ± 0.55 µM | 10 ± 0.52 µM | 11.5 ± 0.76 µM | 16.3 ± 0.81 µM | 9.31 ± 0.97 µM | 14.1 ± 0.89 µM | 16 ± 0.64 µM | 13.3 ± 1.05 µM | 10.6 ± 0.89 µM | 20.3 ± 1.63 µM | 10.3 ± 0.97 µM | 14.4 ± 0.67 µM | 22.4 ± 1.82 µM
COc1cc2ncnc(NCc3cccc(NC(=O)Nc4ccc(F)cc4)c3)c2cc1OCCCCCCN1CCN(CCN2CCOCC2)CC1 [Compound 8-1l, N-(3-(((7-methoxy-6-((6-(4-(2-morpholinoethyl)piperazin-1-yl)hexyl)oxy)quinazolin-4-yl)amino)methyl)phenyl)-N′-(4-fluorophenyl)urea] | 7.03 ± 0.48 µM | 15.9 ± 0.86 µM | 7.72 ± 0.59 µM | 16.8 ± 0.88 µM | 15.2 ± 0.93 µM | 10.4 ± 0.92 µM | 9.03 ± 0.61 µM | 21.3 ± 1.24 µM | 21.4 ± 1.96 µM | 13 ± 0.97 µM | 7.29 ± 0.54 µM | 22.8 ± 0.94 µM | 15.8 ± 0.95 µM | > 30 µM | 6.85 ± 0.57 µM
COc1cc2ncnc(NCc3cccc(NC(=O)Nc4ccccc4Cl)c3)c2cc1OCCCCCCN1CCN(CCN2CCOCC2)CC1 [Compound 8-1m, N-(3-(((7-methoxy-6-((6-(4-(2-morpholinoethyl)piperazin-1-yl)hexyl)oxy)quinazolin-4-yl)amino)methyl)phenyl)-N′-(2-chlorophenyl)urea] | 5.69 ± 0.65 µM | 12 ± 0.57 µM | 12.8 ± 0.42 µM | 11.1 ± 0.74 µM | 14.8 ± 0.86 µM | 8.82 ± 0.49 µM | 5.62 ± 0.51 µM | 13.8 ± 0.77 µM | 15 ± 0.93 µM | 7.79 ± 0.44 µM | 7.83 ± 0.66 µM | 14 ± 0.78 µM | 6.06 ± 0.58 µM | 23.2 ± 2.03 µM | 7.21 ± 0.66 µM
COc1cc2ncnc(NCc3cccc(NC(=O)Nc4ccc(Cl)c(Cl)c4)c3)c2cc1OCCCCCCN1CCN(CCN2CCOCC2)CC1 [Compound 8-1o, N-(3-(((7-methoxy-6-((6-(4-(2-morpholinoethyl)piperazin-1-yl)hexyl)oxy)quinazolin-4-yl)amino)methyl)phenyl)-N′-(3,4-dichlorophenyl)urea] | 5.89 ± 0.47 µM | 10.7 ± 0.51 µM | 9.34 ± 0.98 µM | 5.84 ± 0.53 µM | 9.33 ± 0.71 µM | 7.31 ± 0.55 µM | 5.99 ± 0.43 µM | 12.4 ± 0.89 µM | 11.8 ± 0.63 µM | 7.73 ± 0.82 µM | 6.83 ± 0.52 µM | 9.93 ± 0.53 µM | 5.34 ± 0.39 µM | > 30 µM | 6.88 ± 0.49 µM
